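Five concentrations, 48 hours, 96-well plates. GI50 marks 50% less growth.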 The source made the active and inactive calls. Rule as the data show it: active = GI50 up to about 1.1 µM and inactive = higher.
Key:
Assay in all cases: NCI-60 cell line screen, 48 h
[1] = system: MDA-N
[2] = system: SN12C
[3] = system: U-251
[4] = system: OVCAR-8
[5] = system: DU-145
[6] = system: A498
[7] = system: SF-268
[8] = system: OVCAR-5
[9] = system: MDA-MB-231
[10] = system: CCRF-CEM
[11] = system: HOP-62
[12] = system: MOLT-4
[13] = system: BT-549
[14] = system: SNB-75
[15] = system: LOX IMVI
[16] = system: HT-29
[17] = system: UACC-62
[18] = system: PC-3
[19] = system: TK-10

Structure (SMILES) | GI50 [1] | GI50 [2] | GI50 [3] | GI50 [4] | GI50 [5] | GI50 [6] | GI50 [7] | GI50 [8] | GI50 [9] | GI50 [10] | GI50 [11] | GI50 [12] | GI50 [13] | GI50 [14] | GI50 [15] | GI50 [16] | GI50 [17] | GI50 [18] | GI50 [19]
CCOC(=O)c1ccc(Nc2nc3cc(C(F)(F)F)ccc3nc2C(=O)OCC)cc1 | > 100 µM (inactive) | > 100 µM (inactive) | 19.7 µM (inactive) | 51.6 µM (inactive) | > 100 µM (inactive) | 36.6 µM (inactive) | 97.1 µM (inactive) | > 100 µM (inactive) | 74.5 µM (inactive) | > 100 µM (inactive) | 22 µM (inactive) | > 100 µM (inactive) | 72.6 µM (inactive) | 40.2 µM (inactive) | 42.8 µM (inactive) | 84.1 µM (inactive) | 66.5 µM (inactive) | 47.8 µM (inactive) | 26.4 µM (inactive)
CC(C)(C)OC(=O)NC(Cc1ccc(OCc2ccccc2)cn1)C(=O)N1CCCC1 (configuration not stated) | 55.8 µM (inactive) | 77.6 µM (inactive) | 86.7 µM (inactive) | 40.6 µM (inactive) | > 100 µM (inactive) | > 100 µM (inactive) | 89.1 µM (inactive) | > 100 µM (inactive) | 80 µM (inactive) | 44.8 µM (inactive) | 23.5 µM (inactive) | 34.8 µM (inactive) | 31.1 µM (inactive) | 77.3 µM (inactive) | 72.1 µM (inactive) | 54 µM (inactive) | 54.3 µM (inactive) | 33.4 µM (inactive) | > 100 µM (inactive)
CC(=O)OC1C[C@@H](C)C2(CC(c3ccoc3)OC2=O)C2CCC(O)C3(CO3)C12CO (some centres not stated) | > 100 µM (inactive) | > 100 µM (inactive) | > 100 µM (inactive) | > 100 µM (inactive) | > 100 µM (inactive) | > 100 µM (inactive) | > 100 µM (inactive) | > 100 µM (inactive) | > 100 µM (inactive) | > 100 µM (inactive) | > 100 µM (inactive) | > 100 µM (inactive) | > 100 µM (inactive) | > 100 µM (inactive) | > 100 µM (inactive) | > 100 µM (inactive) | > 100 µM (inactive) | > 100 µM (inactive) | > 100 µM (inactive)
O=S(=O)(O)c1ccc2c(/N=N\c3cccc4ccccc34)c(O)c(S(=O)(=O)O)cc2c1 | > 100 µM (inactive) | – | > 100 µM (inactive) | > 100 µM (inactive) | > 100 µM (inactive) | > 100 µM (inactive) | > 100 µM (inactive) | > 100 µM (inactive) | > 100 µM (inactive) | > 100 µM (inactive) | > 100 µM (inactive) | > 100 µM (inactive) | > 100 µM (inactive) | > 100 µM (inactive) | > 100 µM (inactive) | > 100 µM (inactive) | > 100 µM (inactive) | > 100 µM (inactive) | > 100 µM (inactive)
O=C(c1ccccc1)c1sc2c(=O)c(C(=O)c3ccccc3)c(C(=O)c3ccccc3)sc2c(=O)c1C(=O)c1ccccc1 | 32.2 µM (inactive) | 54.8 µM (inactive) | 44.3 µM (inactive) | 35.4 µM (inactive) | > 100 µM (inactive) | > 100 µM (inactive) | 46.7 µM (inactive) | > 100 µM (inactive) | > 100 µM (inactive) | 23.8 µM (inactive) | 51.1 µM (inactive) | 20.7 µM (inactive) | 37.7 µM (inactive) | 24.5 µM (inactive) | 25.1 µM (inactive) | 33.3 µM (inactive) | > 100 µM (inactive) | > 100 µM (inactive) | 64.3 µM (inactive)
c1ccc2c(c1)c1c3c(c4c(n32)=NCCN4)CCC1 | 20.7 µM (inactive) | 18.5 µM (inactive) | 33.8 µM (inactive) | 39.6 µM (inactive) | 55.3 µM (inactive) | 28 µM (inactive) | 31.6 µM (inactive) | 36.3 µM (inactive) | 24.2 µM (inactive) | 53.1 µM (inactive) | 36.1 µM (inactive) | 21.3 µM (inactive) | 32.1 µM (inactive) | 21.7 µM (inactive) | 21.1 µM (inactive) | 20.8 µM (inactive) | 30.1 µM (inactive) | 26.6 µM (inactive) | 59.7 µM (inactive)
O=C(Nn1cc(F)c(=O)[nH]c1=O)C12CC3CC(CC(C3)C1)C2 | 8.97 µM (inactive) | 11.5 µM (inactive) | 19.3 µM (inactive) | 22.6 µM (inactive) | 8.3 µM (inactive) | 7.24 µM (inactive) | 29.2 µM (inactive) | 21.7 µM (inactive) | 12.7 µM (inactive) | 13 µM (inactive) | 12 µM (inactive) | 16 µM (inactive) | 17.5 µM (inactive) | 24.8 µM (inactive) | 7.8 µM (inactive) | 8.17 µM (inactive) | 7.59 µM (inactive) | 10.7 µM (inactive) | 18.1 µM (inactive)
c1ccc2c(c1)NC1(N3CCCCC3)CCCCC21 (configuration not stated) | 28.1 µM (inactive) | 35.4 µM (inactive) | 41.2 µM (inactive) | 63.2 µM (inactive) | 57.9 µM (inactive) | 32.8 µM (inactive) | 52.5 µM (inactive) | 35.2 µM (inactive) | 34.2 µM (inactive) | 32.4 µM (inactive) | > 100 µM (inactive) | 25.9 µM (inactive) | 53 µM (inactive) | 22.5 µM (inactive) | 38.4 µM (inactive) | 39.4 µM (inactive) | 48.9 µM (inactive) | 39.4 µM (inactive) | > 100 µM (inactive)
Clc1ccc(/C(=C/c2ccccc2)Cn2ccnc2)cc1 | 16.8 µM (inactive) | 22.1 µM (inactive) | 21.8 µM (inactive) | 26.9 µM (inactive) | 33 µM (inactive) | 22.6 µM (inactive) | > 100 µM (inactive) | 44.9 µM (inactive) | 30.2 µM (inactive) | 17.5 µM (inactive) | 89.1 µM (inactive) | 13.6 µM (inactive) | 22.4 µM (inactive) | 18.6 µM (inactive) | 19.2 µM (inactive) | 29.6 µM (inactive) | 28 µM (inactive) | 13.6 µM (inactive) | 56.1 µM (inactive)
C[C@@H]1CCC2[C@@H](C)C(=O)O[C@@H]3C4C[C@@H]1[C@@]23OO[C@@]4(C)O (some centres not stated) | 55.3 µM (inactive) | > 100 µM (inactive) | 48.8 µM (inactive) | 82.8 µM (inactive) | 71.4 µM (inactive) | > 100 µM (inactive) | 76 µM (inactive) | > 100 µM (inactive) | > 100 µM (inactive) | 54.5 µM (inactive) | 48.3 µM (inactive) | 72.1 µM (inactive) | > 100 µM (inactive) | 75.5 µM (inactive) | 23.1 µM (inactive) | > 100 µM (inactive) | > 100 µM (inactive) | > 100 µM (inactive) | > 100 µM (inactive)
COC(=O)c1ccccc1Nc1ccccc1C(=O)OC | > 100 µM (inactive) | > 100 µM (inactive) | 83.6 µM (inactive) | 89.7 µM (inactive) | > 100 µM (inactive) | 52.8 µM (inactive) | 54.2 µM (inactive) | > 100 µM (inactive) | 65.2 µM (inactive) | > 100 µM (inactive) | 59.6 µM (inactive) | > 100 µM (inactive) | > 100 µM (inactive) | 39.3 µM (inactive) | 56.1 µM (inactive) | 91.2 µM (inactive) | > 100 µM (inactive) | 39.5 µM (inactive) | 41.2 µM (inactive)
CN1CC2=C(N=C(S)NC2c2ccccc2)/C(=C/c2ccccc2)C1 (configuration not stated) | 35.7 µM (inactive) | 51.8 µM (inactive) | 54.5 µM (inactive) | > 10 µM (inactive) | > 100 µM (inactive) | 89.7 µM (inactive) | > 100 µM (inactive) | > 100 µM (inactive) | > 10 µM (inactive) | 31.1 µM (inactive) | > 100 µM (inactive) | 13 µM (inactive) | > 100 µM (inactive) | 48 µM (inactive) | 29.7 µM (inactive) | 27 µM (inactive) | 28.5 µM (inactive) | 15 µM (inactive) | 26 µM (inactive)
CN(C)CC1CCC/C(=C\c2ccc(Cl)cc2)C1=O (configuration not stated) | 1.94 µM (inactive) | 3.33 µM (inactive) | 3.71 µM (inactive) | 3.85 µM (inactive) | 15.5 µM (inactive) | 17.3 µM (inactive) | 5.2 µM (inactive) | 16.9 µM (inactive) | 3.05 µM (inactive) | 0.713 µM (active) | 15.8 µM (inactive) | 0.9 µM (active) | 1.73 µM (inactive) | 3.25 µM (inactive) | 1.63 µM (inactive) | 9.27 µM (inactive) | 2.08 µM (inactive) | 2.67 µM (inactive) | 3.9 µM (inactive)
CCOC(=O)[C@@H]1ON2OC(OC3CCCC3(c3ccccc3)c3ccccc3)C(OC(C)=O)[C@H]3OC(=O)[C@@H]1C32 (some centres not stated) | > 100 µM (inactive) | > 100 µM (inactive) | 42.8 µM (inactive) | > 100 µM (inactive) | > 100 µM (inactive) | > 100 µM (inactive) | > 100 µM (inactive) | – | > 100 µM (inactive) | 29.2 µM (inactive) | > 100 µM (inactive) | 43.3 µM (inactive) | > 100 µM (inactive) | > 100 µM (inactive) | 22.1 µM (inactive) | 62.1 µM (inactive) | > 100 µM (inactive) | > 100 µM (inactive) | > 100 µM (inactive)
c1cc2cc(Cc3ccc4[nH]ccc4c3)ccc2[nH]1 | 12.9 µM (inactive) | 17.4 µM (inactive) | 15.4 µM (inactive) | – | 22.9 µM (inactive) | 16.6 µM (inactive) | 20.6 µM (inactive) | 19.5 µM (inactive) | 16.5 µM (inactive) | 21.9 µM (inactive) | 15.7 µM (inactive) | 10.7 µM (inactive) | 19.7 µM (inactive) | 17.9 µM (inactive) | 27.8 µM (inactive) | 16.8 µM (inactive) | 17.2 µM (inactive) | 13.1 µM (inactive) | 22.1 µM (inactive)
